Measured values published in US9970947B2, “Fluorescent probe” (MUSC FOUNDATION FOR RESEARCH DEVELOPMENT, priority 2016, dated 2018).
“Also recorded” adds a separate entry of the source.

Key:
[1] = Cell-free MFF fluorescence as a function of Fe2+ concentration; type: physicochemical
Procedure: (§1) MFF (0-10 μM) was dissolved in medium at the presumed intramitochondrial pH (pH 8.0, 37° C.) (FIG. 2, left panel). Fluorescence of MFF (1 μM) was measured as a function of increasing ferrous ammonium sulfate (Fe^2+) and ferric chloride (Fe^3+) concentration from freshly prepared stock solutions (1 mM). Fluorescence intensity is shown in arbitrary units (a.u.). (FIG. 2, right panel).

[2] = Cell-free MFF fluorescence as a function of Fe3+ concentration; type: physicochemical; details: cell free medium
Procedure: as §1

[3] = system: mitochondria of cultured rat hepatocytes; assay: Mitochondrial accumulation and retention of probe after depolarization, confocal imaging; type: cell-based; details: for retention by mitochondria after depolarization: rat hepatocytes, CCCP 10 μM, oligomycin 10 μg/ml, myxothiazol 10 μM
Procedure: (§2) Rhodamine 123 (Rh123) and MitoTracker Green (MTG) were obtained from Molecular Probes. Primary rat hepatocytes were isolated from overnight-fasted male Sprague-Dawley rats (200-250 g) by collagenase perfusion. Hepatocytes were plated on Type 1 collagen-coated MatTek dishes at a density of 300,000 cells per well and cultured overnight in Waymouth's MB-742/1 growth medium containing 27 mM NaHCO3, 2 mM L-glutamine, 10% fetal calf serum, 100 nM insulin and 10 nM dexamethasone, pH 7.4 at 37° C. in 5% CO2/air.
(§3) Confocal images of hepatocytes were taken with a Zeiss LSM 510 inverted laser scanning confocal microscope (Carl Zeiss, Germany) using a 63×oil immersion objective.
Overnight-cultured rat hepatocytes were loaded with MFF (1 μM for 20 min), washed and incubated for 60 min.
Overnight-cultured rat hepatocytes were loaded with MFF and MTG (both 1 μM for 20 min), washed and incubated for 60 min. Cells were then incubated with 5 mM fructose and imaged “BEFORE” and “AFTER” addition of CCCP, oligomycin and myxothiazol. […] MFF fluorescence changed essentially identically to MTG consistent with covalent labeling of mitochondrial proteins by MFF.

[4] = system: mitochondrial chelatable Fe^2+ in cultured rat hepatocytes; assay: Mitoferrofluor quenching after mitochondrial Fe2+ uptake; type: cell-based
Procedure: as §2, §3
Overnight-cultured rat hepatocytes were loaded with MFF (1 μM for 20 min), washed out and incubated for 60 min. Rh123 (0.5 μM for 20 min) was then loaded. Fe^2+ was added as ferrous ammonium sulfate (10 mM). Fe^2+ addition quenched MFF fluorescence by ˜72%.

[5] = system: mitochondrial chelatable Fe^2+ in cultured rat hepatocytes; assay: Mitoferrofluor fluorescence quenching after lysosomal iron release with bafilomycin A1; type: cell-based; details: 120 min after bafilomycin A1, vs vehicle (DMSO)
Procedure: as §2, §3
Overnight-cultured rat hepatocytes were loaded with MFF and then rhodamine 123, as described in Example 6. […] Panel C represents a quantitative analysis of 10 random fields (*p<0.05 vs vehicle, n=3).

[6] = Absorption, excitation and emission spectra of mitoferrofluor; type: physicochemical

Row | Compound | IC50 ([1]; MFF 1 μM, pH 8.0, 37° C., read-out: IC50 of Fe^2+ quenching of MFF fluorescence) | quenching of MFF fluorescence by Fe^2+ ([1]; cell free medium) | quenching of MFF fluorescence by Fe^3+ [2] | accumulation into mitochondria ([3]; cultured rat hepatocytes) | retention by mitochondria after depolarization [3] | decrease of intramitochondrial MFF fluorescence ([4]; MFF-loaded hepatocytes, excess extracellular Fe^2+ added) | quenching of MFF fluorescence by Fe^2+ addition ([4]; rat hepatocytes, MFF 1 μM for 20 min, ferrous ammonium sulfate 10 mM) | quenching of mitochondrial MFF fluorescence after bafilomycin A1 [5] | fluorescence emission peak [6] | fluorescence excitation peak [6] | extinction coefficient ([6]; at 566 nm)
1 | CCN(CC)c1ccc2c(-c3ccccc3C(=O)OCCCOc3cc(OCCCBr)cc(C(=O)Nc4cc5cccnc5c5ncccc45)c3)c3ccc(=[N+](CC)CC)cc-3oc2c1.[Br-] [MFF, N-(9-(2-((3-(3-((1,10-phenanthrolin-5-yl)carbamoyl)-5-(3-bromopropoxy)phenoxy)propoxy)carbonyl)phenyl)-6-(diethylamino)-3H-xanthen-3-ylidene)-N-ethylethanaminium bromide] | 1000 to 2000 nM | strongly and stoichiometrically quenched by Fe^2+ | not by Fe^3+; also recorded: not Fe^3+ quenched | selectively accumulated into mitochondria | retained by mitochondria; also recorded: MFF fluorescence was retained; also recorded: retained MFF to the same extent as MTG | ~80% | ~72% | became quenched; also recorded: quenched mitochondrial MFF fluorescence | 598 nm | 554 nm | 40,400 cm^−1/M
2 | CN1/C(=C/C=C/c2n(Cc3ccc(CCl)cc3)c3cc(Cl)c(Cl)cc3[n+]2Cc2ccc(CCl)cc2)Oc2ccccc21 [MTG, reference compound] | – | – | – | – | some release of MTG into the cytosol | – | – | – | – | – | –
